Values quoted from earlier work in patent US7604185B2, “Generation of therapeutic microfoam” (BTG International Ltd., priority 2002, dated 2009).

Conditions: in water at STP

Row | SMILES | Mole Fraction Solubility 10^−3
1 | [N-]=[N+]=O [Nitrous oxide] | 43.7 10^−3
2 | [He] [Helium] | 0.7 10^−3
3 | O=C=O [Carbon dioxide] | 61.5 10^−3
4 | O=O [Oxygen] | 2.3 10^−3
